Assay results taken from patent US20180312511A1, “SHORT-ACTING BENZODIAZEPINE DERIVATIVES, PREPARATION METHOD THEREFOR, AND USE THEREOF” (SICHUAN KELUN-BIOTECH BIOPHARMACEUTICAL CO., LTD., priority 2015, published 2018).

Tests used:
[1] = system: Kunming mice; test: Drug-induced loss of righting reflex in mice; assay type: in vivo; details: 60 mg/kg, single bolus via tail vein
Description: (§1) In anesthetic activity tests, latency generally refers to the period between the start of administration of a drug to a subject and the moment that the subject becomes unconscious. A short latency is desirable, since it represents fast onset of the drug.
(§2) The duration of anesthesia generally refers to the period between the moment that a subject becomes unconscious and the moment that the subject regains consciousness. The durations will be different for different animal models or animal species. An over-long duration of anesthesia may result in adverse suppressive effects on the cardiovascular and respiratory systems, such as side effects on the nervous system, including drowsiness, dizziness, etc.; at the same time, an over-short duration of anesthesia may affect the anesthetic effect, causing dose increase of anesthetic during surgery and other issues.
Kunming mice (male, 18-25 g) were randomly divided into several groups. After administering the drugs in a single bolus via the tail vein, the latency to loss of righting reflex and the duration of loss of righting reflex were recorded.

[2] = system: GABA Cl− current, HEK293T cells; test: Cellular GABA activation current via whole-cell patch clamp; assay type: cell-based; details: Homo sapiens, HEK-293T, with 1 μM GABA, holding potential −60 mV; for Emax at 30 µM: concentration 30 μM; for EC50: read-out: EC50 (concentration at half of Emax); for Emax at 10 µM: concentration 10 μM
Protocol: Test compounds were dissolved in external solution (NaCl 140 mM, KCl 4.7 mM, HEPES 10 mM. CaCl2 2 mM, glucose 11 mM, and MgCl2 1 mM, pH 7.4) at various concentrations. HEK293T cells were plated on glass cover slips, and incubated in DMEM medium at 37° C. and 5% CO2 for 24 h.
An HEKA EPC 10 USB patch clamp amplifier was used in the whole-cell recording of GABA Cl^− current. 1 μM GABA was used to excite Cl^− current. Cells were voltage clamped at a holding potential of −60 mV, and treated with the test compounds of different concentrations together with 1 μM of GABA. The Cl^− current induction effect of the test compounds on the same cell, the maximum percentage of current potentiation (Emax), and the concentration of test compounds at half of Emax (EC50) were recorded.

[3] = system: Rhesus monkeys; test: Anesthetic effects in monkeys (loss of consciousness); assay type: in vivo; details: intravenous single bolus
Description: as §1, §2
Rhesus monkeys (male, 5-6 kg) were randomly divided into several groups. After administering the drugs intravenously in a single bolus, the latency to and the duration of loss of consciousness were recorded.

[4] = read-out: Emax (maximum percentage of current potentiation)

| Structure (SMILES) | Latency to loss of righting reflex [1] [min] | Latency to loss of consciousness ([3]; 6 mg/kg) [min] | Duration of loss of consciousness ([3]; 8 mg/kg) [min] | Duration of loss of righting reflex [1] [min] | EC50 [2] [nM] | further results |
| --- | --- | --- | --- | --- | --- | --- |
| COC(=O)CC[C@@H]1N=C(c2ccccn2)c2cc(Br)ccc2-n2ccnc21 [Example 2, (S)-methyl 3-(8-bromo-6-(pyridin-2-yl)-4H-benzo[f]imidazo[1,2-a][1,4]diazepin-4-yl)propanoate] | 0.13 | 3.92 | 55.90 | – | – | Emax at 30 µM [2, 4]: 358%; Duration of loss of consciousness ([3]; 6 mg/kg): 18.10 min |
| COC(=O)CC[C@@H]1N=C(c2ccccc2)c2cc(Cl)ccc2-n2cnnc21 [Example 3, (S)-methyl 3-(8-chloro-6-phenyl-4H-benzo[f][1,2,4]triazolo[4,3-a][1,4]diazepin-4-yl)propanoate] | – | – | – | 11.76 | 950 | Emax at 30 µM [2, 4]: 325% |
| COC(=O)CC[C@@H]1N=C(c2ccccn2)c2cc(Br)ccc2-n2c(C)nnc21 [Example 4, (S)-methyl 3-(8-bromo-1-methyl-6-(pyridin-2-yl)-4H-benzo[f][1,2,4]triazolo[4,3-a][1,4]diazepin-4-yl)propanoate] | – | – | 45.00 | 19.14 | 980 | Emax at 30 µM [2, 4]: 472% |
| COC(=O)CC[C@@H]1N=C(c2ccccn2)c2cc(Br)ccc2-n2c(C3CC3)cnc21 [Example 5, (S)-methyl 3-(8-bromo-1-cyclopropyl-6-(pyridin-2-yl)-4H-benzo[f]imidazo[1,2-a][1,4]diazepin-4-yl)propanoate] | – | – | – | 23.33 | 360 | Emax at 10 µM [2, 4]: 160% |
| [2H]Cc1cnc2n1-c1ccc(Br)cc1C(c1ccccn1)=N[C@H]2CCC(=O)OC [Example 6, (S)-methyl 3-(8-bromo-1-deuteromethyl-6-(pyridin-2-yl)-4H-benzo[f]imidazo[1,2-a][1,4]diazepin-4-yl)propanoate] | 0.17 | – | – | 23.95 | – | – |
| COC(=O)CC[C@@H]1N=C(c2ccccn2)c2cc(Br)ccc2-n2cnnc21 [Example 9, (S)-methyl 3-(8-bromo-6-(pyridin-2-yl)-4H-benzo[f][1,2,4]triazolo[4,3-a][1,4]diazepin-4-yl)propanoate] | – | – | 36.47 | 12.88 | 720 | Emax at 10 µM [2, 4]: 408% |
| COCc1cnc2n1-c1ccc(Br)cc1C(c1ccccn1)=N[C@H]2CCC(=O)OC [Example 10, (S)-methyl 3-(8-bromo-1-(methoxymethyl)-6-(pyridin-2-yl)-4H-benzo[f]imidazo[1,2-a][1,4]diazepin-4-yl)propanoate] | – | 4.00 | 26.00 | 17.27 | 470 | Emax at 3 µM ([2]; concentration 3 μM, read-out: Emax (maximum percentage of current potentiation)): 197%; Duration of loss of consciousness ([3]; 6 mg/kg): 26.00 min |
| [2H]Cc1nnc2n1-c1ccc(Br)cc1C(c1ccccn1)=N[C@H]2CCC(=O)OC [Example 11, (S)-methyl 3-(8-bromo-1-deuteromethyl-6-(pyridin-2-yl)-4H-benzo[f][1,2,4]triazolo[4,3-a][1,4]diazepin-4-yl)propanoate] | – | – | – | 12.82 | 400 | Emax at 30 µM [2, 4]: 319% |
| CCc1cnc2n1-c1ccc(Br)cc1C(c1ccccn1)=N[C@H]2CCC(=O)OC [Example 15, (S)-methyl 3-(8-bromo-1-ethyl-6-(pyridin-2-yl)-4H-benzo[f]imidazo[1,2-a][1,4]diazepin-4-yl)propanoate] | 0.24 | 2.75 | – | – | – | Duration of loss of consciousness ([3]; 4 mg/kg): 37.50 min; Latency to loss of consciousness ([3]; 4 mg/kg): 3.75 min; Duration of loss of consciousness ([3]; 6 mg/kg): 49.00 min |
| COC(=O)CC[C@@H]1N=C(c2ccccc2F)c2cc(Cl)ccc2-n2cnnc21 [Example 17, (S)-methyl 3-(8-chloro-6-(2-fluorophenyl)-4H-benzo[f][1,2,4]triazolo[4,3-a][1,4]diazepin-4-yl)propanoate] | – | – | 52.50 | 18.51 | – | – |
| COC(=O)CC[C@@H]1N=C(c2ccccc2F)c2cc(Cl)ccc2-n2c(C3CC3)nnc21 [Example 18, (S)-methyl 3-(8-chloro-1-cyclopropyl-6-(2-fluorophenyl)-4H-benzo[f][1,2,4]triazolo[4,3-a][1,4]diazepin-4-yl)propanoate] | 0.19 | 5.09 | – | 25.61 | 470 | Emax at 10 µM [2, 4]: 347%; Duration of loss of consciousness ([3]; 1 mg/kg): 41.15 min; Latency to loss of consciousness ([3]; 1 mg/kg): 3.30 min; Latency to loss of consciousness ([3]; 4 mg/kg): 5.10 min |
| COC(=O)CC[C@@H]1N=C(c2ccccn2)c2cc(Cl)ccc2-n2c(C3CC3)cnc21 [Example 21, (S)-methyl 3-(8-chloro-1-cyclopropyl-6-(pyridin-2-yl)-4H-benzo[f]imidazo[1,2-a][1,4]diazepin-4-yl)propanoate] | – | – | – | 23.23 | – | – |
| COC(=O)CC[C@@H]1N=C(c2ccccn2)c2cc(Cl)ccc2-n2c(C3CCC3)cnc21 [Example 29, (S)-methyl 3-(8-chloro-1-cyclobutyl-6-(pyridin-2-yl)-4H-benzo[f]imidazo[1,2-a][1,4]diazepin-4-yl)propanoate] | 0.21 | – | – | 19.09 | – | – |
| CCc1nnc2n1-c1ccc(Cl)cc1C(c1ccccn1)=N[C@H]2CCC(=O)OC [Example 30, (S)-methyl 3-(8-chloro-1-ethyl-6-(pyridin-2-yl)-4H-benzo[f][1,2,4]triazolo[4,3-a][1,4]diazepin-4-yl)propanoate] | 0.20 | – | – | 17.74 | – | – |
| COC(=O)CC[C@@H]1N=C(c2ccccn2)c2cc(Cl)ccc2-n2c(C(C)C)nnc21 [Example 31, (S)-methyl 3-(8-chloro-1-isopropyl-6-(pyridin-2-yl)-4H-benzo[f][1,2,4]triazolo[4,3-a][1,4]diazepin-4-yl)propanoate] | 0.16 | – | – | 17.82 | – | – |
| COC(=O)CC[C@@H]1N=C(c2ccccn2)c2cc(Br)ccc2-n2c(C)cnc21 [Remimazolam, reference compound] | 0.28 | 5.50 | – | – | – | Latency to loss of consciousness ([3]; 4 mg/kg): 5.34 min |
